Experimental findings from patent US20260133193A1, “COMPOSITIONS AND METHODS FOR TREATING INFLAMMATORY DISEASES” (University of Washington, priority 2018, published 2026) are described below.

Structures are written as SMILES. “Also recorded” adds a separate entry of the source.

Format in all cases: cell-based, human
Test [1] relates to neutrophils. In words: Phagocytosis assay in neutrophils (flow cytometry). For orientation: A flow cytometer gives signals particle by particle.
Experimental: To determine whether the reciprocal was true, namely, that TLR activation could inhibit phagocytosis of ICs, the uptake of RNase-treated RNP-ICs was analyzed in presence of the TLR7/8 agonist, R848. […] Specifically, neutrophils were stimulated with R848 prior to incubation with RNase-treated RNP-ICs, HAGG, beads or zymosan. The results are expressed as phagocytosis as compared to no R848 added (% of control). […] Finally, to determine if TLR7/8 activation affected the internalization process and/or the binding ability of the ICs, neutrophils were treated with the cytoskeleton inhibitor Cytochalasin B prior to adding the ICs, thus blocking uptake, but not binding. Specifically, neutrophils, treated with or without R848 followed by cytochalasin B (CytoB, 5 μM), were analyzed for binding and uptake of RNP-ICs by flow cytometry.
SLE IgG, SmRNP and heat-aggregated IgG (HAGG) were labeled with Alexa-647 according to manufacturer's protocol (Life Technologies). Neutrophils, or PBMCs, from healthy individual were stimulated with different ICs, FITC-conjugated latex beads or zymosan (100 μg/mL, Life Technologies) for 30 minutes at 37° C. and immediately analyzed for phagocytosis. In blocking experiments, neutrophils were incubated with 0.1 μM TLR7-9 or control iODN (Enzo Life Sciences), CMK (25 μM, Enzo Life Sciences), cytochalasin B (5 M, Sigma) or antibodies directed against CD16, CD32 or CD64 (all used at 10 μg/mL, BioLegend) for 30 minutes before addition of stimuli. In some experiments, R848, at a concentration of 2 μg/mL, or neutrophil supernatant, was added 30 and 90 minutes before addition of the phagocytic stimuli, respectively.
In test [2] the test system is neutrophils. In words: ROS analysis in neutrophils (DHR123, OxyBURST). The settings on record: flow cytometry and fluorimetry, cell impermeable ROS dye.
The test system of a further test is FcgRIIA on neutrophils. In words: FcgRIIA shedding, flow cytometry of neutrophil cell surface FcgRs. The settings on record: flow cytometry. From the text: To determine the mechanism for the TLR-induced reduction in RNP-IC phagocytosis, we analyzed the neutrophil surface expression of FcgRs after exposure to TLR ligand. Neutrophils were activated with R848 and cell surface expression of FcgRs analyzed by flow cytometry. The results were presented as FcgR levels as compared to no R848 added (% of control). The experiment was repeated five (FcgRI), seven (FcgRIII), and twenty-five (FcgRIIA) times; combined results were compared using paired t test (FcgRIIA, P<0.0001; FcgRI, P=0.027; FcgRIII, P=0.0044). […] In this experiment, neutrophils were activated with the TLR7/8 agonist R848 and analyzed for FcgRIIA at different time-points and concentrations. The experiment was repeated four (concentration) and six (kinetics) times; combined results were compared using paired t test (30 min, P=0.0158; 60 min, P<0.0001; 120 min, P=0.0003; 0.125 μg/mL, P=0.0071; 0.25 μg/mL, P=0.0058; 0.5 μg/mL, P=0.0008; 1 μg/mL, P<0.0001; 2 μg/mL, P<0.0001). […] For these experiments, neutrophils were activated with TLR ligands (LPS, 1 μg/mL, PAM3CSK4 (5 μg/mL), CpG DNA (2 μg/mL), Loxoribine (0.1 mM), CL075 (2.5 μg/mL) or R848 (2 μg/mL)) for 60 minutes or 4 hours and analyzed for FcgRIIA, FcgRII or CD11b and CD66b cell surface expression by flow cytometry. Experiments were repeated six (LPS, P=0.0008), eight (CpG DNA, P=0.035; Loxoribine, P<0.0001, and CL075, P<0.0001), ten (PAM3CSK4, P<0.0001) and forty times (R848, P<0.0001); combined results were compared using paired t test. Additional experiments were repeated four and eight times; combined results were compared using paired t test (CD11b: R848, P<0.0001; LPS, P=0.0002; PAM, P<0.0001; CpG DNA, P<0.0001; CD66b: R848, P<0.0001; LPS, P<0.0001; PAM, P<0.0001; CpG DNA, P=0.014).
Neutrophils were activated by LPS (1 μg/mL), R848 (2 μg/mL), PAM3CSK4 (5 μg/mL), Loxoribine (0.1 mM), CL075 (2.5 μg/mL) or CpG DNA (2 μg/mL) for 30 minutes, followed by analysis of cell surface expression of CD32A (IV.3; Stemcell Technologies, FUN-2, BioLegend), CD16 (clone 3G8), CD64 (clone 10.1), and CD66b (all from BioLegend) by flow cytometry. For intracellular staining, neutrophils were fixed in 2% paraformaldehyde for 10 minutes, permeabilized with saponin (diluted 1:1000 in PBS) for 15 minutes and stained with anti-CD32A antibodies diluted 1:100. In some experiments, neutrophils were incubated with inhibitors (DPI (25 μM, Sigma), apocynin (100 μM, Sigma), GM-6001 (10 μM, Enzo Life Sciences), LY294002 (10 μM), cOmplete Protease Inhibitor Cocktail Tablets (1× dissolved in H2O, Roche), neutrophil elastase IV inhibitor (25 μM, Calbiochem), E-64 (1 μM, Sigma), 4-(2-Aminoethyl)benzenesulfonyl fluoride hydrochloride (AEBSF, 0.1 mM, Sigma), CMK (25 μM, Enzo Life Sciences), cytochalasin B (5 μM, Sigma) or chymostatin (10 μg/mL, Sigma)) or recombinant furin (100 ng/mL, maximal dose tolerated by the neutrophils, Peprotech) 30 minutes prior to addition of stimuli. In some experiments cell surface levels of B cell activating factor (BAFF, Biolegend) was analyzed according to the same protocol as described above. Monocytes and pDCs were detected using antibodies to CD14 (BioLegend) and CD304 (Miltenyi Biotech), respectively.

The next test concerns Akt and S6. In words: S6 and Akt phosphorylation by flow cytometry. The following applies: TLR7/8 activation with R848. The protocol:
We next asked which pathway(s) were acting upstream of NADPH oxidase to induce FcgRIIA shedding. […] Phosphorylation of Akt and S6 was determined by flow cytometry upon TLR7/8 activation. The experiment was repeated four times; combined results were compared using paired t test (pS6, P=0.042; pAkt, P=0.037). […] To confirm the role for PI3K in TLR-mediated activation of ROS and subsequent shedding of FcgRIIA, neutrophils were incubated with the PI3K inhibitor LY294002 prior to addition of TLR agonist. Blocking PI3K signaling abrogated TLR-mediated ROS generation, phosphorylation of ncf1 at S345 as well as shedding of FcgRIIA. Briefly, neutrophils, pre-treated with inhibitors of PI3K (LY294002, 10 μM) or NADPH oxidase (DPI, 25 μM), were activated with R848 and analyzed for ROS generation by flow cytometry using DHR123. […] Additionally, neutrophils were pre-treated with the PI3K inhibitor LY294002 (10 μM) and analyzed for R848-mediated shedding of FcgRIIA by flow cytometry. […]
Neutrophils were activated by R848 for 15 minutes, fixed and permeabilized according to manufacturer's instructions (BioLegend), and incubated with a specific antibody recognizing phosphorylated S235/236 in S6 (Cell Signaling) or phosphorylated S473 in Akt (BD Biosciences) for 60 minutes. pS6 and pAkt levels were analyzed by flow cytometry and expressed as percent positive cells as compared to non-stimulated cells.

The mark [3] stands for this setting: neutrophils stimulated with R848 before stimuli, vs no R848.

Turning to `CCOCc1nc2c(N)nc3ccccc3c2n1CC(C)(C)O` [R848], in the test on neutrophils [1] (setting [3]), the “uptake of RNase-treated RNP-ICs and HAGG by neutrophils” value was “significantly decreased uptake of ICs as well as heat-aggregated IgG (HAGG)”; the “uptake of beads and zymosan by neutrophils” value is “increased uptake of beads and zymosan”. The “binding and uptake of RNP-ICs by neutrophils” value with neutrophils [1] (with or without R848, followed by cytochalasin B 5 μM) is “suppressed both IC-mediated binding and subsequent phagocytosis”. For the same compound, the “cellular localization of ROS generation” value in the test with neutrophils [2] is “induced intracellular generation of ROS, but no detectable extracellular ROS”. Further, the “neutrophil cell surface expression of FcgRIIA after stimulus” value with FcgRIIA on neutrophils (clone IV.3, vs non-stimulated) is “significantly reduced; also recorded: time- and dose-dependent”. The “neutrophil surface levels of FcgRIIIB and FcgRI after stimulus” value in the test on FcgRIIA on neutrophils (vs no R848) is listed as “increased”. Besides, in the test with Akt and S6, the “levels of phosphorylated Akt and S6” value is “induced increased levels of phosphorylated Akt and S6”.
